Experiment: xn = mol fraction of the nth substance listed
Conditions: 100 kPa, Liquid; for viscosity: Concentric cylinders viscometry; for mass density: Vibrating tube method

CCCC[n+]1ccn(C)c1.O=S(=O)([N-]S(=O)(=O)C(F)(F)F)C(F)(F)F + CCCCn1cc[n+](C)c1.F[B-](F)(F)F
Conditions | mass density, x1 = 0.25 [kg/m3] | mass density, x1 = 0.498 [kg/m3] | mass density, x1 = 0.751 [kg/m3] | mass density, x1 = 1 [kg/m3] | viscosity, x1 = 0.25 [mPa·s] | viscosity, x1 = 0.498 [mPa·s] | viscosity, x1 = 0.751 [mPa·s] | viscosity, x1 = 1 [mPa·s]
283.15 K | 1291.2 | 1355.8 | 1409.1 | 1451.8 | 200.83 | 158.06 | 127.96 | 106.77
288.15 K | 1287.1 | 1351.4 | 1404.4 | 1446.9 | 149.79 | 119.67 | 97.87 | 82.16
293.15 K | 1283.1 | 1347.1 | 1399.8 | 1442.1 | 114.12 | 92.47 | 76.33 | 64.53
298.15 K | 1279.1 | 1342.8 | 1395.1 | 1437.2 | 88.56 | 72.77 | 60.64 | 51.6
303.15 K | 1275.1 | 1338.5 | 1390.5 | 1432.4 | 69.91 | 58.24 | 48.97 | 41.93
308.15 K | 1271.2 | 1334.2 | 1386 | 1427.6 | 56.12 | 47.31 | 40.14 | 34.59
313.15 K | 1267.3 | 1329.9 | 1381.5 | 1422.8 | 45.7 | 38.96 | 33.35 | 28.91
318.15 K | 1263.4 | 1325.7 | 1376.9 | 1418.1 | 37.72 | 32.48 | 28.05 | 24.46
323.15 K | 1259.5 | 1321.4 | 1372.4 | 1413.4 | 31.52 | 27.36 | 23.85 | 20.91
328.15 K | 1255.6 | 1317.2 | 1368 | 1408.7 | 26.63 | 23.29 | 20.48 | 18.05
333.15 K | 1251.8 | 1313.1 | 1363.5 | 1404 | 22.71 | 20.02 | 17.75 | 15.72
338.15 K | 1248 | 1308.9 | 1359.1 | 1399.3 | 19.58 | 17.36 | 15.51 | 13.8
343.15 K | 1244.2 | 1304.8 | 1354.8 | 1394.7 | 17.02 | 15.19 | 13.66 | 12.2
348.15 K | 1240.4 | 1300.7 | 1350.4 | 1390.1 | 14.91 | 13.38 | 12.11 | 10.86
353.15 K | 1236.7 | 1296.6 | 1346 | 1385.5 | 13.15 | 11.84 | 10.81 | 9.72
358.15 K | 1233 | 1292.6 | 1341.7 | 1381 | 11.66 | 10.55 | 9.688 | 8.754
363.15 K | 1229.3 | 1288.6 | 1337.5 | 1376.4 | 10.42 | 9.467 | 8.733 | 7.926
